We go through three compounds from patent publication US20240016805A1, “THERAPEUTIC METHODS AND COMPOSITIONS FOR TREATING PANCREATIC CANCER USING DEVIMISTAT” (Cornerstone Pharmaceuticals, Inc., priority 2020, published 2024).

Each structure is given as a SMILES string.

A short description of data set [1]: Compatibility of devimistat with IV infusion sets, IV bags and syringes. In kind it is physicochemical. The procedure:
Therefore, DEHP-containing IV infusion sets, IV bags or syringes should not be used in mixing or administration of devimistat.
A compatibility study has been conducted showing that devimistat is compatible with 4 commonly used IV infusion sets. Therefore, these 4 types of IV infusion sets, and IV infusion sets that are made with the same materials, can be used to administer devimistat.
Compatibility studies have shown that devimistat drug product (50 mg/mL), and drug product diluted with D5W to various concentrations (1.6-25 mg/mL) are compatible with various types of syringes, as listed below. Therefore, any of these types of syringes, and syringes that are made with the same materials, can be used to administer devimistat. Also, glass syringes can also be used, since glass (such as glass containers) is compatible with devimistat drug product. • Norm-Ject, polyethylene barrel, polyethylene plunger, latex free (Henke Sass Wolf GMBH) syringes • Becton Dickinson syringes • Terumo syringes • Monoject syringes • Glass syringes

Data set [2] can be described thus: Adverse events and potential risks attributed to the study drugs. The format is in vivo. The settings on record: expected adverse event. From the text: Probably related: Creatinine (expected Adverse Event).
Attribution is the relationship between an adverse event or serious adverse event and the study drug. Attribution will be assigned as follows: • Definite—The AE is clearly related to the study drug. • Probable—The AE is likely related to the study drug. • Possible—The AE may be related to the study drug. • Unlikely—The AE is doubtfully related to the study drug. • Unrelated—The AE is clearly NOT related to the study drug.

The subject of data set [3] is metastatic pancreatic cancer. As to conditions: cited from earlier work.
A short description of data set [4]: Animal studies of IV administration of devimistat (acute toxicity, local inflammation). In kind it is in vivo. The procedure: Devimistat must be administered IV, via an IV catheter that is free flowing and free of air in the dead space of the IV catheter, to minimize vascular irritation, inflammation and acute toxicity of devimistat (Study NCL-049). […] To avoid local reactions at and around the site of administration, devimistat must be administered via a central venous catheter.
Devimistat must not be administered as a bolus, but by infusion, at a rate of ˜4 mL/min, via a central venous catheter with D5W running at a rate of about 125-150 mL/hr. This is to minimize potential acute toxicity of devimistat, according to animal studies.

In data set [5] the test system is advanced pancreatic cancer. The settings on record: gemcitabine vs. fluorouracil (Burris 1997); cited from earlier work.
The subject of data set [6] is metastatic pancreatic cancer. As to conditions: metastatic pancreatic cancer (Conroy 2011); cited from earlier work.
The next data set relates to metastatic PDA. As to conditions: patients with metastatic PDA (Von Hoff 2013); cited from earlier work.
Where [7] appears, read: 18 patients who received the MTD, with mFOLFIRINOX

On to `O=C(O)CCCCC(CCSCc1ccccc1)SCc1ccccc1` (stereo not drawn) [devimistat, 6,8-bis(benzylsulfanyl)octanoic acid], for which, in data set [1] (4 commonly used IV infusion sets (PVC, latex, polyethylene)), the “compatibility with IV infusion sets” value was “compatible”. Further, in data set [1] (DEHP-containing IV infusion sets and IV bags), the “leaching of DEHP” value is reported as “can cause leaching of DEHP”. For the same compound, in data set [2], the “adverse events probably related” value was “Creatinine”. Further, in data set [3] (setting [7]), the “Grade 1-2 toxicity observed” value was “sensory neuropathy”; the “common grade 3/4 toxicities” value is “hypokalemia, diarrhea, abdominal pain, hyperglycemia, peripheral neuropathy, neutropenia, lymphopenia, anemia, and thrombocytopenia”. Also, in data set [3] (pilot Phase 1 study), the “specific risks attributed beyond the toxicities associated with mFOLFIRINOX” value is “no specific risks that have been definitively observed and attributed to devimistat”. Also, the “effect of accidental co-administration of extra air in the dead space of IV catheters” value in data set [4] (animal studies, IV administration) is listed as “potential to induce acute toxicity”. Moreover, the “effect of accidental leakage into the perivascular space during IV administration” value in data set [4] (in vivo, iv) is given as “can induce significant local inflammation”.
With `O=c1[nH]cc(F)c(=O)[nH]1` [fluorouracil, 5-fluoro-1H-pyrimidine-2,4-dione], the overall survival in data set [5] was 4.4 months.
For `Nc1ccn([C@@H]2O[C@H](CO)[C@@H](O)C2(F)F)c(=O)n1` [gemcitabine], in data set [6], the PFS is recorded as 3.3 months, the overall survival is listed as 6.8 months and the partial response rate is on record as 9%. In addition, the overall survival in data set [5] is on record as 5.6 months. Besides, in the data set with metastatic PDA, the overall survival is on record as 6.7 months and the “progression free survival (PFS)” value was 3.7 months.
